In patent publication US10961197B2, “Metal chelators for imaging, therapeutics, and bioanalysis” (THE BOARD OF TRUSTEES OF THE UNIVERSITY OF ILLINOIS, priority 2016, dated 2021):

Columns and labels:
Assay type in all cases: physicochemical
[1] = EDTA challenge assay of kinetic inertness (luminescence over time, 5 nM complex, 1 mM EDTA); details: for stability in EDTA solution: for 2 days
Description: FIG. 2 is a graph of the relative kinetic stability as measured by the luminescence signal intensity at ca. 545 nm (for Tb(III) complexes) or 620 nm (for Eu(III) complexes) for various dilute aqueous solutions (5 nM) of the indicated metal complexes in TBS buffer containing 1 mM EDTA.
FIG. 3 is a graph of the relative kinetic stability as measured by the luminescence signal intensity at ca. 545 nm (for Tb(III) complexes) or 620 nm (for Eu(III) complexes) for various dilute aqueous solutions (5 nM) of the indicated metal complexes in TBS buffer containing 1 mM EDTA.
The cyclic TTHA-based complexes Tb-12a and Eu-12b were still more than 40% in emissive after 48 h.
(§1) Complete metallation, as judged by formation of green Tb luminescence, occurred in less than 15 min. The resulting complex was then diluted to a final concentration of 5 nM in buffer solution that contained a much higher concentration (1 mM) of a competing chelator, ethylene diamine tetraacetic acid (EDTA). By observing the metal luminescence over time, the kinetic inertness of compound iii relative to that of other known chelators was assessed.

[2] = Metallation of chelator with Tb in buffer at 1:1 ratio, judged by green Tb luminescence; details: 1:1 ratio in buffer
Description: as §1

[3] = Quantum yield of emission of lanthanide complexes in water / aqueous buffer; details: Tb complex
Description: A cyclohexyl analog of the metal chelator was prepared with methylenecarboxylate pendant groups and a sensitizing chromophore (carbostyril 124) appended to one of the central nitrogens (compound iii). The synthesis of compound iii was remarkably efficient (8 steps, 45% overall yield). Moreover, it can be scaled up and altered to prepare different derivatives, as evidenced by the incorporation of a single chromophore into the structure. Given its position in the molecule, the amide oxygen between the cyclohexyl nitrogen and the chromophore may coordinate to a bound Tb ion. This coordination in turn would allow for efficient sensitization of metal luminescence and result in a high quantum yield of emission. […] The quantum yield of compound iii exceeded 50% in water, making it among the most efficient luminescent Tb complexes known.
All of the complexes prepared show characteristic lanthanide emission spectra. UV-Vis absorption spectra closely matched those of previously reported carbostyril-sensitized complexes. […] The efficient emission and lack of bound waters support the hypothesis that inner substitution positions the sensitizer such that it remains coordinated to the metal center.

Compound	time to equilibrate with the EDTA solution ([1]; Tb complex) [h]	stability in EDTA solution [1]	time to complete metallation [2]	quantum yield [3]	time to complete dissociation from Tb(III) [1]
Cc1cc(=O)[nH]c2c(NC(=O)CN(CCN(CC(=O)O)[C@@H]3CCCC[C@H]3N(CC(=O)O)CC(=O)O)[C@H]3CCCC[C@@H]3N(CC(=O)O)CC(=O)O)cccc12 [Compound iii]	2 to 3	remains essentially stable	less than 15 min	exceeded 50%	
O=C(O)CN(CCN(CC(=O)O)CC(=O)O)CCN(CC(=O)O)CC(=O)O [DTPA, diethylamine triamine pentaacetic acid]					ca. 10 h
DOTAm		remains essentially stable			
O=C(O)CN1CCN(CC(=O)O)CCN(CC(=O)O)CCN(CC(=O)O)CC1 [DOTA, 1,4,7,10-tetraazacyclododecane-1,4,7,10-tetraacetic acid]		remains essentially stable			
